Drawing on patent publication US20260001914A1, “MACROCYCLIC PEPTIDES TARGETING KRAS” (Merck Sharp & Dohme LLC, priority 2022, published 2026), this text covers EC50 for eight compounds.

One may read the EC50 as the concentration giving half of the maximal effect.

The structures appear in SMILES notation. *1 amine or outer side, *2 acyl side, *3 side chain or, on linkers, in order; H or OH if unused. Where a SMILES comes first, the peptide text is derived from it. Bridges are numbered along the chain shown (N, C = ends). [ ]: non-standard residue; d: D form. Phe(4-guanidino) = N=C(N)Nc1ccc(C[C@H](N)C(=O)O)cc1; Ala(pyrimidin-5-yl) = N[C@@H](Cc1cncnc1)C(=O)O; Gly(N-(CH2)3-guanidino) = N=C(N)NCCCNCC(=O)O; X6 = O=C([C@H](Cc1cnn(C2COC2)c1)N[*:1])[*:2]; X27 = Cc1ccc(C[C@H](N[*:1])C(=O)[*:2])cn1; X24 = O=C([C@H](Cc1ccncc1Cl)N[*:1])[*:2]; X11 = CC(C)(F)CC[C@H](N[*:1])C(=O)[*:2]; Phe(4-F) = N[C@@H](Cc1ccc(F)cc1)C(=O)O; NHCH2CH2SCH2CO = O=C(CSCCN[*:1])[*:2]; Phe(2-F) = N[C@@H](Cc1ccccc1F)C(=O)O; NMe3Pal = CN[C@@H](Cc1cccnc1)C(=O)O; X1 = O=C(C12CC(CN[*:1])(C1)C2)[*:2]; Ala(cPr) = N[C@@H](CC1CC1)C(=O)O; NMeF = CN[C@@H](Cc1ccccc1)C(=O)O; PhLac = O=C(O)[C@@H](O)Cc1ccccc1; 3Pal = N[C@@H](Cc1cccnc1)C(=O)O; 4Pal = N[C@@H](Cc1ccncc1)C(=O)O; Ahp(2) = CCCCC[C@H](N)C(=O)O; Cba = N[C@@H](CC1CCC1)C(=O)O; hLeu = CC(C)CC[C@H](N)C(=O)O; hLys = NCCCCC[C@H](N)C(=O)O; αMeC = C[C@](N)(CS)C(=O)O; NMeA = CN[C@@H](C)C(=O)O; Nle = CCCC[C@H](N)C(=O)O

KRAS-G12D protein, sequence (P01116 1-188 isoform P01116-2 G12D): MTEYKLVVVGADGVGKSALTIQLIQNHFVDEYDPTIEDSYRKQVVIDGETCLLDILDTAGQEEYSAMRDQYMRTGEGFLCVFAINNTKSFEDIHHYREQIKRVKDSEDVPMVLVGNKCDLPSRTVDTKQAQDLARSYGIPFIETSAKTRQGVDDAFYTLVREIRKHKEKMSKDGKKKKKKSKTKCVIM

The experiment concerns the target KRAS-G12D protein (Homo sapiens, UniProt P01116, G12D). The experiment in a line: SOS-mediated nucleotide exchange assay (BODIPY-GDP / Tb-streptavidin TR-FRET). In kind it is biochemical.
`CCCC[C@@H]1NC(=O)[C@H](Cc2cccnc2)NC(=O)[C@H](C)N(C)C(=O)[C@H](Cc2ccccc2)OC(=O)C23CC(CNC(=O)[C@H](Cc4ccccc4)N(C)C(=O)[C@H](CCCC)NC(=O)[C@H](Cc4ccccc4F)NC1=O)(C2)C3` [compound 236, cyclo(FLac-NMeA-3Pal-Nle-Phe2F-Nle-NMeF-amBCP)] (cyclo([3Pal][Nle][Phe(2-F)][Nle][NMeF][X1][PhLac][NMeA])) returned an EC50 of 50.3 nM.
In the case of `C[C@H]1C(=O)N[C@@H](Cc2cncnc2)C(=O)N[C@@H](CC2CC2)C(=O)N[C@@H](Cc2ccncc2Cl)C(=O)N[C@@H](CCC(C)(C)F)C(=O)N(C)[C@@H](Cc2ccccc2)C(=O)NCC23CC(C2)(C3)C(=O)O[C@@H](Cc2ccccc2)C(=O)N1C` [compound 299, cyclo(FLac-NMeA-PyrimAla-cPrA-4Pal2Cl-hL3F-NMeF-amBCP)] (cyclo([Ala(cPr)][X24][X11][NMeF][X1][PhLac][NMeA][Ala(pyrimidin-5-yl)])) it was 6.3 nM; in that of `CCCC[C@@H]1NC(=O)[C@H](Cc2cccnc2)NC(=O)[C@H](C)N(C)C(=O)[C@H](Cc2ccc(C)nc2)NC(=O)C23CC(CNC(=O)[C@H](Cc4cccnc4)N(C)C(=O)[C@H](CCCC)NC(=O)[C@H](Cc4ccccc4F)NC1=O)(C2)C3` [compound 164, cyclo(4Me3Pal-NMeA-3Pal-Nle-Phe2F-Nle-NMe3Pal-amBCP)] (cyclo([3Pal][Nle][Phe(2-F)][Nle][NMe3Pal][X1][X27][NMeA])), 2890 nM; in that of `CC(C)C[C@@H]1NC(=O)[C@H](Cc2ccc(O)cc2)NC(=O)[C@H](CCCNC(=N)N)NC(=O)[C@H](Cc2ccccc2)NC(=O)CSC[C@@H](C(N)=O)NC(=O)[C@H](Cc2ccccc2)N(C)C(=O)[C@H](CCCCCN)NC(=O)[C@H](Cc2ccc(O)cc2)NC1=O` [compound 13, cyclo(F-R-Y-L-Y-hK-NMcF-Cl-ClAc)] ({CH2CO}-FRYLY[hLys][NMeF]C-NH2; thioether N-8), 5630 nM.
To `CCCC[C@@H]1NC(=O)[C@H](Cc2ccncc2)NC(=O)[C@H](CCCNC(=N)N)NC(=O)[C@H](Cc2ccc(F)cc2)NC(=O)CSCCNC(=O)[C@H](Cc2ccccc2)N(C)C(=O)[C@H](CCCC)NC(=O)[C@H](Cc2ccc(OC)cc2)NC1=O` [compound 90, cyclo(Phe4F-R-4Pal-Nle-TyrOMe-Nle-NMeF-Cysteamine-ClAc)] (cyclo([4Pal][Nle]Y(Me)[Nle][NMeF][NHCH2CH2SCH2CO][Phe(4-F)]R)) belongs 432 nM; to `CC(C)CC[C@@H]1NC(=O)[C@H](Cc2cnn(C3COC3)c2)NC(=O)[C@H](CC2CC2)NC(=O)[C@H](Cc2cncnc2)NC(=O)[C@H](C)N(C)C(=O)[C@H](Cc2ccccc2)OC(=O)C23CC(CNC(=O)[C@H](Cc4ccccc4)N(C)C1=O)(C2)C3` [compound 300, cyclo(FLac-NMeA-PyrimAla-cPrA-AlaPyz1Ox-hL-NMeF-amBCP)] (cyclo([Ala(cPr)][X6][hLeu][NMeF][X1][PhLac][NMeA][Ala(pyrimidin-5-yl)])), 254 nM.
In the case of `CCCCC[C@@H]1NC(=O)[C@H](Cc2ccc(OC)cc2)NC(=O)[C@H](CC2CCC2)NC(=O)[C@H](Cc2cccnc2)NC(=O)[C@H](CCCNC(=N)N)NC(=O)[C@H](Cc2ccccc2F)NC(=O)CSC[C@@](C)(C(N)=O)NC(=O)[C@H](Cc2ccccc2)N(C)C1=O` [compound 370, cyclo(Phe2F-R-3Pal-cBuA-TyrOMe-Ahp-NMeF-aMeCl-ClAc)] it was 14.9 nM; in that of `CCCCC[C@@H]1NC(=O)[C@H](Cc2ccc(OC)cc2)NC(=O)[C@H](CC2CCC2)NC(=O)[C@H](Cc2ccc(NC(=N)N)cc2)NC(=O)CN(CCCNC(=N)N)C(=O)[C@H](Cc2ccccc2)NC(=O)CSC[C@@](C)(C(N)=O)NC(=O)[C@H](Cc2ccccc2)N(C)C1=O` [compound 361, cyclo(F-NGnG-Phe4Gn-cBuA-TyrOMe-Ahp-NMeF-aMeCl-ClAc)] ({CH2CO}-F[Gly(N-(CH2)3-guanidino)][Phe(4-guanidino)][Cba]Y(Me)[Ahp(2)][NMeF][αMeC]-NH2; thioether N-8), 37 nM.
